These results are taken from paper PMC2375353, “Effective treatment of experimental U-87MG human glioblastoma in nude mice with a targeted cytotoxic bombesin analogue, AN-215” (British Journal of Cancer, 2002).

Entries after “also recorded” stand apart in the source; their conditions may differ.

The test system of one assay is hGRPR/BRS-1. Description: RT-PCR of hGRPR/BRS-1 mRNA in U-87MG tumours. The format is in vivo, human. The settings on record: experiment 1 tumours; normalised vs hGAPDH; control 15.1±1.5; change not significant. As for the experimental part:
(§1) Total RNA was extracted from frozen tissue samples by using RNAzolB (Tel-Test, Friendswood, TX, USA) according to the manufacturer's instructions. Concentrations of total RNA were calculated by measuring the OD260 value. Total RNA (4 μg) was subjected to electrophoresis for 2 h at 70 V in 10 μl of sample buffer containing 1× MOPS buffer (pH 6.5), 6.4% formaldehyde, 48% deionized formamide, 0.25% w v^−1 bromophenol blue, 0.05% glycerol and 0.25 mg ml^−1 ethidium bromide. The RNA gel contained 1.4% agarose, 1×MOPS (pH 6.5) and 1.73% formaldehyde.
(§2) The RT–PCR was performed using Gene Amp RNA Core Kit (Perkin-Elmer, Foster City, CA, USA). To avoid genomic DNA contamination, all samples were subjected to DNase digestion before RT–PCR. RNA (2 μg) was treated with 0.3 unit of RQ1 RNase-free DNase (Promega, Madison, WI, USA) at 37°C for 30 min in 19 μl of mixture containing 5 mM MgCl2, 1× PCR buffer, 1 mM of each dNTP, 1 unit RNase inhibitor and 2.5 μM random hexamers. The reaction was terminated by enzyme denaturation at 99°C for 5 min. […]
(§3) The PCR amplification of the cDNAs for human glyceraldehyde-3-phosphate dehydrogenase (hGAPDH), GRP receptor (hGRPR, BRS-1) and neuromedin-B receptor (hNMBR, BRS-2) was performed as follows. […] The number of cycles was determined in preliminary experiments to be within the exponential range of PCR amplification.

For the next assay, the system named is hNMBR/BRS-2. The assay is described as follows: RT-PCR of hNMBR/BRS-2 mRNA in U-87MG tumours. The format is in vivo, human. The settings on record: experiment 1 tumours; normalised vs hGAPDH; control 7.6±3.5. As to the method: as §1, §2, §3
On the set-up of assay [1]: method as in 2 sources, one per row (each row's own in cited_ref): ref Nagy et al, 1997 ||| ref not printed in the sentence (AN-201: Nagy et al, 1996). The settings on record: cited from earlier work. From the text:
(§4) Current treatment options for malignant gliomas, including surgery, radiation, and chemotherapy, are of limited effectiveness, and novel therapeutic modalities must be explored. Targeting of antineoplastic agents to cancer cells by linking them to a ligand with high affinity for tumour cells should improve tumour growth inhibition and decrease peripheral toxicity ([Schally and Nagy, 1999]). The presence of high affinity receptors for bombesin (BN)-like peptides on a wide variety of tumours prompted us to employ some of our powerful BN/gastrin releasing peptide (GRP) antagonists as carrier mole ... || Recently, we developed a series of targeted cytotoxic conjugates based on analogues of peptide hormones such as luteinizing hormone-releasing hormone(LH-RH), somatostatin and BN/GRP, for which high affinity receptors are expressed on a variety of tumours ([Schally and Nagy, 1999]; [Nagy and Schally, 2001]).

The subject of assay [2] is U-87MG human glioblastoma xenografted into nude mice. Description: Experiment 2: growth of s.c. U-87MG xenografts, with BN receptor blockade. The class given is in vivo, human tumour in male athymic nude mice. As to the method:
Human glioblastoma cell line U-87MG was obtained from American Type Culture Collection (Manassas, VA, USA) and cultured as described ([Pinski et al, 1994]). Male athymic (Ncr nu/nu) nude mice, approximately 6-weeks-old on arrival, were obtained from the National Cancer Institute (Frederick Cancer Research and Development Center, Frederick, MD, USA), and housed in laminar air-flow cabinets under pathogen-free conditions with a 12 h light/12 h dark schedule, and fed autoclaved standard chow and water ad libitum. Xenografts were initiated by s.c. injection of 12×10^6 U-87MG cells into the right flanks of five male nude mice. Tumours resulting after 2 weeks were aseptically dissected, mechanically minced, and 3-mm^3 pieces of tumour tissue were transplanted s.c. with a trocar needle. The take rate was 100%. All experiments were performed in accordance with institutional ethical guidelines of animal care and were essentially in agreement with [UKCCCR guidelines (1998)] for the welfare of animals in experimental neoplasia.
Experiment 2 was started when U-87MG tumours had grown to 70–84 mm^3 in volume. The animals were divided into the following treatment groups: group 1 (10 mice), control, vehicle solution; group 2 (10 mice), analogue AN-215; group 3 (five mice), unconjugated mixture of the cytotoxic radical AN-201 and BN antagonist RC-3095. All compounds were injected i.v. at 150 nmol kg^−1 of BW on days 1, 10, and 17. In addition, one group of tumour-bearing mice received an i.v. injection of 200 μg of BN antagonist RC-3095 15 min before each administration of AN-215 at a dose of 150 nmol kg^−1 of BW on days 1, 10 and 17 as in the case of group 2. The experiment was terminated on day 20 as described above.
Data are expressed as mean±s.e. Differences between mean values were evaluated by two-tailed Student's t-test, P<0.05 being considered significant.

The subject of assay [3] is BN receptors on Swiss 3T3 fibroblasts. The settings on record: ref Nagy et al, 1997; cited from earlier work.
From the text: as §4, with “...” for “... || Recently, we developed a series of targeted cytotoxic conjugates based on analogues of peptide hormones such as luteinizing hormone-releasing hormone(LH-RH), somatostatin and BN/GRP, for which high affinity receptors are expressed on a variety of tumours ([Schally and Nagy, 1999]; [Nagy and Schally, 2001]).”

The subject of assay [4] is H-69 human small-cell lung carcinoma. The settings on record: ref Kiaris et al, 1999a; cited from earlier work.
From the text: as §4, with “...” for “... || Recently, we developed a series of targeted cytotoxic conjugates based on analogues of peptide hormones such as luteinizing hormone-releasing hormone(LH-RH), somatostatin and BN/GRP, for which high affinity receptors are expressed on a variety of tumours ([Schally and Nagy, 1999]; [Nagy and Schally, 2001]).”

The subject of assay [5] is PC-3 human androgen-independent prostate cancer. The settings on record: ref Plonowski et al, 2000; cited from earlier work.
From the text: as §4, with “...” for “... || Recently, we developed a series of targeted cytotoxic conjugates based on analogues of peptide hormones such as luteinizing hormone-releasing hormone(LH-RH), somatostatin and BN/GRP, for which high affinity receptors are expressed on a variety of tumours ([Schally and Nagy, 1999]; [Nagy and Schally, 2001]).”

Setting [6] is: RC-3095 200 μg/mouse i.v. 15 min before AN-215 150 nmol kg^-1 days 1, 10, 17.

`COc1cccc2c1C(=O)c1c(O)c3c(c(O)c1C2=O)C[C@@](O)(C(=O)CO)C[C@@H]3O[C@H]1C[C@H](N2C=CCC2)[C@H](O)[C@H](C)O1` [AN-201, 2-pyrrolino-doxorubicin]: the “hGRPR/BRS-1 mRNA expression” value in the assay with hGRPR/BRS-1 stood at 21.6±3.4 a.u. For the same compound, in the assay on hNMBR/BRS-2, the “hNMBR/BRS-2 mRNA expression” value came to 10.9±3.6 a.u. For the same compound, in assay [1] (in vitro, ref not printed in the sentence (AN-201: Nagy et al, 1996)), the “Potency relative to DOX (fold)” value is 1000 times.
In the case of “Gln-Trp-Ala-Val-Gly-His-Leu-ψ(CH2-NH)-Leu-NH2 [AN-215]”, in assay [2] (150 nmol kg^-1 i.v. days 1, 10, 17, 20 days, no pretreatment, control 4.5±0.2), the Tumour doubling time came to 6.6 ± 1.0 days. In addition, in assay [2] (RC-3095 200 μg i.v. 15 min before AN-215 150 nmol kg^-1), the “Antitumour effect after BN receptor blockade” value was “could be blocked by pretreatment with an excess of a bombesin antagonist; also recorded: non-significant growth inhibition of U-87MG glioblastomas”. In assay [2] (setting [6]), the “Growth inhibition after RC-3095 pretreatment” value came out at 22% and the “Tumour doubling time after RC-3095 pretreatment” value turned out to be 4.7 ± 02 days. The “hGRPR/BRS-1 mRNA expression” value in the assay with hGRPR/BRS-1 amounted to 25.4±5.1 a.u. Moreover, in the assay with hNMBR/BRS-2, the “hNMBR/BRS-2 mRNA expression” value amounted to 3.3±1.0 a.u. Moreover, the “Affinity to BN receptors” value in assay [3] is given as “high affinity”. The “Inhibition of H-69 human small-cell lung carcinoma” value in assay [4] is recorded as “effectively inhibit”. Besides, in assay [5], the “Inhibition of PC-3 human androgen-independent prostate cancer” value was “effectively inhibit”. In assay [1] (ref Nagy et al, 1997), the “Antiproliferative effect” value is “retains the antiproliferative effect of its cytotoxic moiety”.
